Results taken from the NIST ThermoML archive (doi:10.1016/j.jct.2015.08.033).
± gives the expanded uncertainty stated by the source.

Assay: mn = molality of the nth substance listed, in mol/kg
Settings: 100 kPa, Liquid; for speed of sound: Frequency=3 MHz, Sing-around technique in a fixed-path interferometer; for mass density: Vibrating tube method

O=S(=O)([O-])C(F)(F)F.O=S(=O)([O-])C(F)(F)F.[Sr+2] [strontium trifluoromethanesulfonate] + CN(C)C=O
Settings	mass density, 298.15 K [kg/m3]	mass density, 303.15 K [kg/m3]	mass density, 308.15 K [kg/m3]	mass density, 313.15 K [kg/m3]	mass density, 318.15 K [kg/m3]	speed of sound, 298.15 K [m/s]	speed of sound, 303.15 K [m/s]	speed of sound, 308.15 K [m/s]	speed of sound, 313.15 K [m/s]	speed of sound, 318.15 K [m/s]
m1 = 0.01062	946.522 ± 0.51	941.756 ± 0.51	936.972 ± 0.51	932.186 ± 0.51	927.378 ± 0.51	1457.2 ± 1.3	1438 ± 1.3	1418.7 ± 1.3	1399.5 ± 1.3	1380.3 ± 1.3
m1 = 0.01763	948.231 ± 0.5	943.466 ± 0.5	938.685 ± 0.51	933.888 ± 0.5	929.08 ± 0.5	1457.2 ± 1.3	1438 ± 1.3	1418.7 ± 1.3	1399.6 ± 1.3	1380.4 ± 1.3
m1 = 0.02656	950.395 ± 0.5	945.626 ± 0.5	940.844 ± 0.5	936.049 ± 0.5	931.241 ± 0.5	1457.1 ± 1.3	1438 ± 1.3	1418.7 ± 1.3	1399.6 ± 1.3	1380.5 ± 1.3
m1 = 0.03847	953.244 ± 0.5	948.482 ± 0.5	943.704 ± 0.5	938.91 ± 0.5	934.105 ± 0.5	1457 ± 1.3	1437.9 ± 1.3	1418.7 ± 1.3	1399.6 ± 1.3	1380.6 ± 1.3
m1 = 0.04908	955.781 ± 0.49	951.013 ± 0.49	946.233 ± 0.49	941.439 ± 0.49	936.634 ± 0.49	1456.8 ± 1.3	1437.8 ± 1.3	1418.6 ± 1.3	1399.6 ± 1.3	1380.6 ± 1.3
m1 = 0.06765	960.189 ± 0.49	955.42 ± 0.49	950.641 ± 0.49	945.845 ± 0.49	941.04 ± 0.49	1456.5 ± 1.3	1437.6 ± 1.3	1418.5 ± 1.3	1399.5 ± 1.3	1380.7 ± 1.3
m1 = 0.08503	964.269 ± 0.49	959.5 ± 0.49	954.718 ± 0.49	949.923 ± 0.49	945.118 ± 0.49	1456.2 ± 1.3	1437.3 ± 1.3	1418.3 ± 1.3	1399.5 ± 1.3	1380.6 ± 1.3
m1 = 0.1067	969.35 ± 0.48	964.567 ± 0.48	959.781 ± 0.48	954.985 ± 0.48	950.18 ± 0.48	1456.1 ± 1.3	1437.1 ± 1.3	1418.2 ± 1.3	1399.3 ± 1.3	1380.6 ± 1.3
m1 = 0.1286	974.403 ± 0.48	969.629 ± 0.48	964.845 ± 0.48	960.047 ± 0.48	955.242 ± 0.48	1455.4 ± 1.3	1436.7 ± 1.3	1417.9 ± 1.3	1399.1 ± 1.3	1380.5 ± 1.3
m1 = 0.1612	981.851 ± 0.48	977.074 ± 0.48	972.285 ± 0.48	967.485 ± 0.48	962.676 ± 0.48	1454.7 ± 1.3	1436.1 ± 1.3	1417.4 ± 1.3	1398.8 ± 1.3	1380.2 ± 1.3

[Ba+2].[O-][Cl+3]([O-])([O-])[O-].[O-][Cl+3]([O-])([O-])[O-] [barium perchlorate] + CN(C)C=O
Settings	mass density, 298.15 K [kg/m3]	mass density, 303.15 K [kg/m3]	mass density, 308.15 K [kg/m3]	mass density, 313.15 K [kg/m3]	mass density, 318.15 K [kg/m3]	speed of sound, 298.15 K [m/s]	speed of sound, 303.15 K [m/s]	speed of sound, 308.15 K [m/s]	speed of sound, 313.15 K [m/s]	speed of sound, 318.15 K [m/s]
m1 = 0.01339	947.432 ± 0.54	942.667 ± 0.54	937.889 ± 0.54	933.096 ± 0.54	928.287 ± 0.55	1458.1 ± 1.3	1438.9 ± 1.3	1419.6 ± 1.3	1400.4 ± 1.3	1381.3 ± 1.3
m1 = 0.02254	949.821 ± 0.54	945.058 ± 0.54	940.281 ± 0.54	935.489 ± 0.54	930.686 ± 0.54	1458.7 ± 1.3	1439.5 ± 1.3	1420.2 ± 1.3	1401.1 ± 1.3	1381.9 ± 1.3
m1 = 0.0331	952.562 ± 0.53	947.81 ± 0.54	943.03 ± 0.54	938.243 ± 0.54	933.442 ± 0.54	1459.5 ± 1.3	1440.2 ± 1.3	1420.9 ± 1.3	1401.8 ± 1.3	1382.7 ± 1.3
m1 = 0.04712	956.179 ± 0.53	951.422 ± 0.53	946.652 ± 0.53	941.866 ± 0.53	937.07 ± 0.53	1459.9 ± 1.3	1440.9 ± 1.3	1421.7 ± 1.3	1402.7 ± 1.3	1383.7 ± 1.3
m1 = 0.06582	960.992 ± 0.53	956.235 ± 0.53	951.468 ± 0.53	946.686 ± 0.53	941.893 ± 0.53	1460.9 ± 1.3	1441.9 ± 1.3	1422.8 ± 1.3	1403.8 ± 1.3	1384.9 ± 1.3
m1 = 0.08395	965.617 ± 0.53	960.865 ± 0.53	956.099 ± 0.53	951.321 ± 0.53	946.53 ± 0.53	1461.8 ± 1.3	1442.8 ± 1.3	1423.8 ± 1.3	1405 ± 1.3	1386.1 ± 1.3
m1 = 0.1061	971.226 ± 0.52	966.477 ± 0.52	961.715 ± 0.52	956.94 ± 0.52	952.153 ± 0.53	1462.8 ± 1.3	1444 ± 1.3	1425.1 ± 1.3	1406.3 ± 1.3	1387.5 ± 1.3
m1 = 0.1322	977.835 ± 0.52	973.089 ± 0.52	968.33 ± 0.52	963.559 ± 0.52	958.776 ± 0.52	1464.1 ± 1.3	1445.4 ± 1.3	1426.6 ± 1.3	1407.8 ± 1.3	1389.2 ± 1.3
m1 = 0.1588	984.508 ± 0.52	979.766 ± 0.52	975.008 ± 0.52	970.24 ± 0.52	965.461 ± 0.52	1465.4 ± 1.3	1446.8 ± 1.3	1428 ± 1.3	1409.4 ± 1.3	1390.8 ± 1.3
m1 = 0.1995	994.63 ± 0.51	989.888 ± 0.51	985.134 ± 0.51	980.371 ± 0.51	975.596 ± 0.52	1467.4 ± 1.3	1448.9 ± 1.3	1430.3 ± 1.3	1411.8 ± 1.3	1393.3 ± 1.3

[Ba+2].[O-][Cl+3]([O-])([O-])[O-].[O-][Cl+3]([O-])([O-])[O-] [barium perchlorate] + CC(=O)N(C)C
Settings	mass density, 298.15 K [kg/m3]	mass density, 303.15 K [kg/m3]	mass density, 308.15 K [kg/m3]	mass density, 313.15 K [kg/m3]	mass density, 318.15 K [kg/m3]	speed of sound, 298.15 K [m/s]	speed of sound, 303.15 K [m/s]	speed of sound, 308.15 K [m/s]	speed of sound, 313.15 K [m/s]	speed of sound, 318.15 K [m/s]
m1 = 0.01314	939.723 ± 0.54	935.116 ± 0.54	930.504 ± 0.54	925.882 ± 0.54	921.254 ± 0.55	1457.2 ± 1.3	1437.5 ± 1.3	1417.7 ± 1.3	1398.1 ± 1.3	1378.6 ± 1.3
m1 = 0.02301	942.289 ± 0.54	937.692 ± 0.54	933.085 ± 0.54	928.469 ± 0.54	923.849 ± 0.54	1458 ± 1.3	1438.3 ± 1.3	1418.6 ± 1.3	1399.1 ± 1.3	1379.6 ± 1.3
m1 = 0.03274	944.807 ± 0.53	940.214 ± 0.53	935.612 ± 0.53	931.002 ± 0.54	926.384 ± 0.54	1458.8 ± 1.3	1439.2 ± 1.3	1419.5 ± 1.3	1400 ± 1.3	1380.6 ± 1.3
m1 = 0.04665	948.382 ± 0.53	943.793 ± 0.53	939.196 ± 0.53	934.591 ± 0.53	929.98 ± 0.53	1459.9 ± 1.3	1440.4 ± 1.3	1420.8 ± 1.3	1401.4 ± 1.3	1382 ± 1.3
m1 = 0.06587	953.282 ± 0.53	948.701 ± 0.53	944.112 ± 0.53	939.515 ± 0.53	934.912 ± 0.53	1461.4 ± 1.3	1441.9 ± 1.3	1422.5 ± 1.3	1403.1 ± 1.3	1383.8 ± 1.3
m1 = 0.08329	957.7 ± 0.52	953.122 ± 0.52	948.539 ± 0.53	943.99 ± 0.53	939.4 ± 0.53	1462.7 ± 1.3	1443.3 ± 1.3	1423.9 ± 1.3	1405 ± 1.3	1385.8 ± 1.3
m1 = 0.1042	963.001 ± 0.52	958.419 ± 0.52	953.839 ± 0.52	949.253 ± 0.52	944.664 ± 0.52	1464.5 ± 1.3	1445 ± 1.3	1425.7 ± 1.3	1406.5 ± 1.3	1387.4 ± 1.3
m1 = 0.1312	969.764 ± 0.52	965.202 ± 0.52	960.631 ± 0.52	956.055 ± 0.52	951.474 ± 0.52	1466.2 ± 1.3	1447 ± 1.3	1427.8 ± 1.3	1408.8 ± 1.3	1389.8 ± 1.3
m1 = 0.1609	977.195 ± 0.51	972.637 ± 0.51	968.076 ± 0.51	963.509 ± 0.51	958.937 ± 0.51	1468.4 ± 1.3	1449.3 ± 1.3	1430.3 ± 1.3	1411.3 ± 1.3	1392.5 ± 1.3
m1 = 0.1965	985.908 ± 0.51	981.362 ± 0.51	976.808 ± 0.51	972.249 ± 0.51	967.689 ± 0.51	1470.8 ± 1.3	1451.9 ± 1.3	1432.9 ± 1.3	1414.1 ± 1.3	1395.4 ± 1.3
